Measured values as given in PubChem BioAssay (NCI).
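Each compound was tested at five concentrations against cells in 96-well plates for 48 hours. Here, GI50 denotes the concentration required for 50% inhibition of growth. TGI: total growth inhibition.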 Where a SMILES comes first, the peptide text is derived from it. The star is where a group is joined. Boc = CC(C)(C)OC(=O)*; tBu = CC(C)(C)*

Experiments:
Assay in all cases: inhibition of tumour cell growth, NCI panel, 48 h
A498 renal = test system: A498 renal
HCT-116 colon = test system: HCT-116 colon
LOX IMVI melanoma = test system: LOX IMVI melanoma
M14 melanoma = test system: M14 melanoma
MOLT-4 leukemia = test system: MOLT-4 leukemia
NCI-H460 lung = test system: NCI-H460 lung
SK-MEL-2 melanoma = test system: SK-MEL-2 melanoma
CAKI-1 renal = test system: CAKI-1 renal
HOP-92 NSCLC = test system: HOP-92 NSCLC
NCI/ADR-RES ovarian = test system: NCI/ADR-RES ovarian

SMILES | TGI (A498 renal) [µM] | TGI (HCT-116 colon) [µM] | TGI (LOX IMVI melanoma) [µM] | TGI (M14 melanoma) [µM] | TGI (MOLT-4 leukemia) [µM] | TGI (NCI-H460 lung) [µM] | TGI (SK-MEL-2 melanoma) [µM] | TGI (CAKI-1 renal) [µM] | TGI (HOP-92 NSCLC) [µM] | TGI (NCI/ADR-RES ovarian) [µM] | GI50 (A498 renal) [µM] | GI50 (CAKI-1 renal) [µM] | GI50 (HCT-116 colon) [µM] | GI50 (HOP-92 NSCLC) [µM] | GI50 (LOX IMVI melanoma) [µM] | GI50 (M14 melanoma) [µM] | GI50 (MOLT-4 leukemia) [µM] | GI50 (NCI/ADR-RES ovarian) [µM] | GI50 (SK-MEL-2 melanoma) [µM]
O=C(NN1C(=O)C(Cl)C1c1c(O)ccc2ccccc12)c1ccccc1O (stereo not given) | > 100 | > 100 | > 100 | > 100 | > 100 | > 100 | > 100 | – | – | – | – | – | – | – | – | – | – | – | –
O/N=C1\CSc2ccccc2C1 | > 100 | > 100 | > 100 | > 100 | > 100 | > 100 | > 100 | > 100 | > 100 | > 100 | – | – | – | – | – | – | – | – | –
Cc1cc(C)nc(NC(=S)Nc2ccc(Cl)cc2)c1 | > 100 | > 100 | > 100 | > 100 | > 100 | > 100 | > 100 | > 100 | – | > 100 | – | – | – | – | – | – | – | – | –
Cc1cc(NS(=O)(=O)c2ccc(NC(=O)c3ccc4nc5ccccc5c(Nc5ccc(S(=O)(=O)Nc6cc(C)on6)cc5)c4c3)cc2)no1 | – | > 50 | > 50 | > 50 | > 50 | > 50 | > 50 | > 50 | > 50 | > 50 | – | – | – | – | – | – | – | – | –
CC(OC(C)(C)C)C(NC(=O)C(N)CCCCNC(=O)OC(C)(C)C)C(=O)NC(Cc1ccccc1)C(=O)O (stereo not given) (H-Lys(Boc)-Thr(tBu)-Phe-OH; configuration not given here) | – | > 100 | > 100 | > 100 | > 100 | > 100 | > 100 | > 100 | > 100 | > 100 | – | – | – | – | – | – | – | – | –
O=S(=O)(O)c1ccc2c(N=Nc3c(O)ccc4ccccc34)cccc2c1 | > 100 | > 100 | > 100 | > 100 | – | > 100 | > 100 | > 100 | > 100 | > 100 | – | – | – | – | – | – | – | – | –
CON(C)C(=O)C(C)NC(=O)OC(C)(C)C (stereo not given) | > 100 | > 100 | – | > 100 | > 100 | > 100 | – | – | > 100 | > 100 | – | – | – | – | – | – | – | – | –
COc1ccc(/C=N/n2c(Cc3ccccc3)n[nH]c2=O)cc1 | > 100 | > 100 | – | > 100 | > 100 | > 100 | > 100 | > 100 | – | > 100 | – | – | – | – | – | – | – | – | –
CO[C@]12C[C@@H](CNC(=O)c3cc(Br)c[nH]3)O[C@H]1NC(=O)N2 | > 100 | > 100 | – | > 100 | > 100 | > 100 | > 100 | > 100 | > 100 | > 100 | – | – | – | – | – | – | – | – | –
CCOc1cc(/C=C/C(=O)CC(=O)/C=C/c2ccc(OC(=O)CNCCN(CC)CC)c(OCC)c2)ccc1OC(=O)CNCCN(CC)CC | 3.85 | 2.61 | 2.44 | 4.23 | 2.72 | – | 3.26 | 6.74 | 6.2 | 24.1 | 2.02 | 2.12 | 1.2 | 1.74 | 1.05 | 1.74 | 0.531 | 3.46 | 1.68
CCOc1cc2c(cc1O)CC[C@@H]1[C@@H]2CC[C@]2(C)[C@@H](O)CC[C@@H]12 | 20 | 6.63 | 21 | 3.16 | 11.6 | 23 | 64.8 | 52.9 | 29.6 | 8.98 | – | – | – | – | – | – | – | – | –
